Measured values as given in ChEMBL document CHEMBL1201862, “PubChem BioAssay data set” (2004).
Where “and” joins values, the source holds several entries; their conditions need not be identical. Equal entries are not always repeated.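 How tested: cells in 96-well plates exposed to compound for 48 hours at five concentrations. The concentration for 50% growth inhibition is given as GI50.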 Calls of active or inactive are those of the source. No stated cut-off is given here; in the data, active = GI50 up to about 1.1 µM and inactive = higher.

Columns and labels:
Assay in all cases: inhibition of tumour cell growth, NCI panel, 48 h
[1] = tested on: NCI-H23
[2] = tested on: CAKI-1
[3] = tested on: K562
[4] = tested on: EKVX
[5] = tested on: A549
[6] = tested on: PC-3
[7] = tested on: HT-29
[8] = tested on: IGROV-1
[9] = tested on: MOLT-4
[10] = tested on: SNB-75
[11] = tested on: 786-0
[12] = tested on: UACC-62
[13] = tested on: MCF7
[14] = tested on: HCT-15
[15] = tested on: MDA-MB-231
[16] = tested on: HL-60
[17] = tested on: TK-10
[18] = tested on: DU-145
[19] = tested on: HCC 2998
[20] = tested on: OVCAR-8
[21] = tested on: KM12
[22] = tested on: SN12C
[23] = tested on: SK-MEL-5
[24] = tested on: SW-620
[25] = tested on: SF-295
[26] = tested on: SR
[27] = tested on: M14
[28] = tested on: UACC-257
[29] = tested on: SF-268
[30] = tested on: HOP-62
[31] = tested on: T47D
[32] = tested on: RXF 393
[33] = tested on: COLO 205
[34] = tested on: RPMI-8226
[35] = tested on: SK-OV-3
[36] = tested on: MDA-N
[37] = tested on: SK-MEL-28
[38] = tested on: CCRF-CEM
[39] = tested on: Malme-3M
[40] = tested on: HOP-92
[41] = tested on: UO-31
[42] = tested on: OVCAR-4
[43] = tested on: SF-539
[44] = tested on: ACHN
[45] = tested on: LOX IMVI
[46] = tested on: MDA-MB-435
[47] = tested on: HCT-116
[48] = tested on: NCI/ADR-RES
[49] = tested on: NCI-H226
[50] = tested on: U-251
[51] = tested on: OVCAR-5
[52] = tested on: A498
[53] = tested on: NCI-H460
[54] = tested on: SNB-19

CC(C)(C)[Si](C)(C)Oc1cc(CO)cc2c1cc(=N)o[n+]2[O-]
GI50 [1]: 6.97 µM (inactive)
GI50 [2]: > 10 µM (inactive)
GI50 [3]: 4.53 µM (inactive)
GI50 [4]: > 10 µM (inactive)
GI50 [5]: > 10 µM (inactive)
GI50 [6]: 4.01 µM (inactive)
GI50 [7]: 4.18 µM (inactive)
GI50 [8]: 8.15 µM (inactive)
GI50 [9]: 2.61 µM (inactive)
GI50 [10]: > 10 µM (inactive)
GI50 [11]: > 10 µM (inactive)
GI50 [12]: > 10 µM (inactive)
GI50 [13]: 2.72 µM (inactive)
GI50 [14]: 5.61 µM
GI50 [15]: > 10 µM (inactive)
GI50 [16]: 3.61 µM (inactive)
GI50 [17]: > 10 µM (inactive)
GI50 [18]: > 10 µM (inactive)
GI50 [19]: 9.35 µM (inactive)
GI50 [20]: > 10 µM (inactive)
GI50 [21]: 4.1 µM (inactive)
GI50 [22]: 5.56 µM (inactive)
GI50 [23]: > 10 µM (inactive)
GI50 [24]: > 10 µM (inactive)
GI50 [25]: > 10 µM (inactive)
GI50 [26]: 2.48 µM (inactive)
GI50 [27]: > 10 µM (inactive)
GI50 [28]: > 10 µM (inactive)
GI50 [29]: 6.03 µM (inactive)
GI50 [30]: > 10 µM (inactive)
GI50 [31]: 4.8 µM (inactive)
GI50 [32]: 3.96 µM (inactive)
GI50 [33]: > 10 µM (inactive)
GI50 [34]: 6.22 µM (inactive)
GI50 [35]: > 10 µM (inactive)
GI50 [36]: > 10 µM (inactive)
GI50 [37]: > 10 µM (inactive)
GI50 [38]: 2.84 µM (inactive)
GI50 [39]: > 10 µM (inactive)

CC(=O)OCC1OC(n2c(=S)n(-c3ccc(C)cc3)c(=O)c3ccccc32)C(OC(C)=O)C(OC(C)=O)C1OC(C)=O (configuration not stated)
GI50 [9]: 65.3 µM (inactive)
GI50 [40]: 31.6 µM (inactive) and 30.4 µM (inactive)
GI50 [17]: 29 µM (inactive)
GI50 [26]: 23.7 µM (inactive)
GI50 [41]: 62.4 µM (inactive) and 58.1 µM (inactive)
GI50 [32]: 83 µM (inactive) and 67 µM (inactive)
GI50 [34]: 86.3 µM (inactive) and 49.1 µM (inactive)

c1ccc(CCN2CCc3[nH]c4ccccc4c3C2)cc1
GI50 [1]: 30.5 µM (inactive)
GI50 [3]: 16.9 µM (inactive)
GI50 [4]: 33.4 µM (inactive)
GI50 [5]: 24.6 µM (inactive)
GI50 [7]: 14.1 µM (inactive)
GI50 [42]: 40.4 µM (inactive)
GI50 [8]: 23.9 µM (inactive)
GI50 [9]: 26.5 µM (inactive)
GI50 [43]: 22.8 µM (inactive)
GI50 [40]: 11.9 µM (inactive)
GI50 [10]: 29 µM (inactive)
GI50 [11]: 17.1 µM (inactive)
GI50 [44]: 28.1 µM (inactive)
GI50 [45]: 19.5 µM (inactive)
GI50 [46]: 17.4 µM (inactive)
GI50 [12]: > 10 µM (inactive)
GI50 [13]: 18.8 µM (inactive)
GI50 [14]: 23.4 µM
GI50 [15]: 33 µM (inactive)
GI50 [16]: 19 µM (inactive)
GI50 [47]: 14.5 µM (inactive)
GI50 [17]: 24.3 µM (inactive)
GI50 [18]: > 100 µM (inactive)
GI50 [19]: 16.3 µM (inactive)
GI50 [20]: 20.4 µM (inactive)
GI50 [21]: 17.3 µM (inactive)
GI50 [22]: 27.9 µM (inactive)
GI50 [48]: 20.3 µM (inactive)
GI50 [23]: 16.5 µM (inactive)
GI50 [49]: 29.8 µM (inactive)
GI50 [24]: 16.1 µM (inactive)
GI50 [50]: 18 µM (inactive)
GI50 [25]: 15.1 µM (inactive)
GI50 [26]: 27.9 µM (inactive)
GI50 [27]: 17.1 µM (inactive)
GI50 [51]: 20 µM (inactive)
GI50 [28]: 14.9 µM (inactive)
GI50 [52]: 13.9 µM (inactive)
GI50 [29]: 71.1 µM (inactive)
GI50 [41]: 13.6 µM (inactive)
GI50 [30]: 19.5 µM (inactive)
GI50 [53]: 13.7 µM (inactive)
GI50 [31]: 20.1 µM (inactive)
GI50 [32]: 17.5 µM (inactive)
GI50 [33]: > 10 µM (inactive)
GI50 [34]: > 10 µM (inactive)
GI50 [35]: 35.8 µM (inactive)
GI50 [37]: 20 µM (inactive)
GI50 [54]: 20.8 µM (inactive)
GI50 [38]: 32.6 µM (inactive)
GI50 [39]: 17.1 µM (inactive)
